Measured values: paper PMC12332266 (Frontiers in Pharmacology, 2025)
Like-named read-outs stand apart in the source and are kept apart here.

Columns and labels:
[1] = ref extensive literature search, cited from earlier work
[2] = system: hiPSC-CM (iCell Cardiomyocytes^2); assay: Intracellular miRNA expression by RT-qPCR in hiPSC-CM pellets after 72-hour treatment; conditions: for fold induction at 0.3 µM / fold induction at 1 µM / fold induction at 3 µM / fold induction at 10 µM / fold induction at 0.1 µM / fold induction at 0.01 µM / fold induction at 0.03 µM: Homo sapiens
Procedure: (§1) Culture media change was performed every 2 days.
Total RNA was extracted from hiPSC-CM using the miRNeasy 96 Kit (Qiagen, Hilden, Germany) following the manufacturer’s recommendations. After the extraction, RNA purity was assessed by NanoDrop™ 8000 Spectrophotometer (Thermo Fisher Scientific Inc.). 5–10 ng/μL of RNA per sample were reverse transcribed and pre-amplified by using the TaqMan™ Advanced miRNA cDNA Synthesis Kit (Thermo Fisher Scientific Inc.). The synthesized cDNA was used for RT-qPCR with selected TaqMan™ assays (Thermo Fischer Scientific Inc.). RT-qPCR was carried out following the Applied Biosciences TaqMan miRNA expression assay protocol on a ViiA7 instrument (Thermo Fisher Scientific, Inc.). […] Therefore, to maximize the number of drugs and concentrations, explored in the same study, we pooled the triplicates for intracellular profiling of miRNAs. Therefore, no statistical analysis was performed on the data of miRNA profiling in the pellets of hiPSC-CM.
Following RTCA CardioECR assessment, hiPSC-CM cell pellets were collected, and total RNA was extracted and purified to investigate miRNAs upregulation by RT-qPCR. […] For the initial assessment of intracellular miRNAs in 12 different treatments, encompassing various drug classes, we used a panel of 17 miRNAs, which we selected from the publicly available data focusing mainly on in vitro models and structural cardiotoxicants (Supplementary Table S2).

[3] = system: hiPSC-CM (iCell Cardiomyocytes^2); assay: RTCA CardioECR assessment (impedance and electrophysiology parameters)
Procedure: as §1
After seeding on fibronectin-coated xCELLigence ePlates (Agilent Technologies, Inc. Santa Clara, CA, USA), iCell^2 CM were monitored continuously through impedance electrodes. The following impedance parameters were measured: Cell Index (CI, measure of cell “health” and monolayer integrity), beating rate (BR) and amplitude (CI Amplitude, magnitude of contraction). Electrophysiology-like parameters (Field Potential Duration (FPD), considered as a surrogate for QT in in vivo studies, and Spike Amplitude (SA), depolarization induced by Na^+ channel opening) were measured starting from day 4–6, following the monolayer formation. […] All RTCA CardioECR data were double normalized (DMSO control and the baseline) with no further statistical group comparison for the normalized parameters. The variability of the data within the treatment groups was assessed by standard deviation.

[4] = 72 h, read-out: hsa-miR-7-5p fold change
[5] = 72 h, read-out: hsa-miR-29a-5p fold change
[6] = 72 h, read-out: hsa-miR-146b-5p fold change
[7] = 72 h, read-out: hsa-miR-187-3p fold change
[8] = hiPSC-CM, 72-hour treatment, lowest concentration causing at least 20% change from baseline
[9] = 72 h, read-out: hsa-miR-126-3p fold change
[10] = 72 h, read-out: hsa-miR-133b fold change
[11] = 72 h, read-out: hsa-miR-182-5p fold change
[12] = 72 h, read-out: hsa-miR-185-3p fold change
[13] = 72 h, read-out: hsa-miR-208b-3p fold change
[14] = 72 h, read-out: hsa-miR-365a-5p fold change
[15] = 72 h, read-out: hsa-miR-96-5p fold change
[16] = 72 h, read-out: hsa-miR-[…] change

Structure (SMILES): O=c1[nH]cc(F)c(=O)[nH]1 [5-FluoroUracil]
- Cmax total ([1]; Supplementary Table 1): 4.6 µM
- Cmax total ([1]; Table 1): 4.60 µM
- intracellular miRNA upregulation in hiPSC-CM, in words [2]: smallest fold change
- fold induction at 0.3 µM [2, 4]: 0.7
- fold induction at 1 µM [2, 4]: 0.5
- fold induction at 3 µM [2, 4]: 0.5
- fold induction at 10 µM [2, 4]: 0.7
- fold induction at 0.3 µM [2, 5]: 0.6
- fold induction at 1 µM [2, 5]: 0.5
- fold induction at 3 µM [2, 5]: 0.5
- fold induction at 10 µM [2, 5]: 0.8
- fold induction at 0.3 µM [2, 6]: 0.6
- fold induction at 1 µM [2, 6]: 0.3
- fold induction at 3 µM [2, 6]: 0.3
- fold induction at 10 µM [2, 6]: 1.6
- fold induction at 0.3 µM [2, 7]: 1.2
- fold induction at 1 µM [2, 7]: 1.2
- fold induction at 3 µM [2, 7]: 1.1
- fold induction at 10 µM [2, 7]: 0.5
- Cell index (CI) MEC [3, 8]: ND (ND – not detected, magnitude of change was lower than 20%)
- changes in CI or BR and miRNA expression, in words ([3]; hiPSC-CM, 72 h, RTCA CardioECR and intracellular miRNA compared): did not induce either changes in CI or BR above 20% or miRNA expression above 2-fold change
- RTCA, MEC (CI) ([3]; hiPSC-CM, change ≥20%, Table 2): ND (ND – not detected, magnitude of change was lower than 20% for CI/BR)

Structure (SMILES): COc1nc(N)nc2c1ncn2[C@@H]1O[C@H](COP(=O)(N[C@@H](C)C(=O)OCC(C)(C)C)Oc2cccc3ccccc23)[C@@H](O)[C@@]1(C)O (stereo partly shown) [BMS-986094]
- intracellular miRNA upregulation in hiPSC-CM, in words [2]: lowest upregulation of miRNAs was detected at the highest concentration tested
- miRNAs hiPSC-CM pellet, MEC overall [2]: 0.1 µM
- miRNAs upregulated at the MEC overall (hiPSC-CM pellet) [2]: miR-29a-5p, miR-365a-5p
- fold induction at 0.1 µM [2, 4]: 1.7
- fold induction at 0.3 µM [2, 4]: 1
- fold induction at 1 µM [2, 4]: 1.3
- fold induction at 3 µM [2, 4]: 1.3
- fold induction at 0.1 µM [2, 5]: 6.3
- fold induction at 0.3 µM [2, 5]: 1
- fold induction at 1 µM [2, 5]: 1.2
- fold induction at 3 µM [2, 5]: 0.5
- fold induction at 0.1 µM [2, 9]: 0.3
- fold induction at 0.3 µM [2, 9]: 2.9
- fold induction at 1 µM [2, 9]: 2.8
- fold induction at 3 µM [2, 9]: 5.2
- fold induction at 0.1 µM [2, 10]: 1.3
- fold induction at 0.3 µM [2, 10]: 3.3
- fold induction at 1 µM [2, 10]: 2
- fold induction at 3 µM [2, 10]: 1.3
- fold induction at 0.1 µM [2, 6]: 1.8
- fold induction at 0.3 µM [2, 6]: 4.2
- fold induction at 1 µM [2, 6]: 11.3
- fold induction at 3 µM [2, 6]: 1.4
- fold induction at 0.1 µM [2, 11]: 1
- fold induction at 0.3 µM [2, 11]: 8.8
- fold induction at 1 µM [2, 11]: 7.1
- fold induction at 3 µM [2, 11]: 5.5
- fold induction at 0.3 µM [2, 12]: 0.5
- fold induction at 1 µM [2, 12]: 3.3
- fold induction at 3 µM [2, 12]: 8.2
- fold induction at 0.1 µM [2, 7]: 0.5
- fold induction at 0.3 µM [2, 7]: 2.7
- fold induction at 1 µM [2, 7]: 8.8
- fold induction at 0.1 µM [2, 13]: 1.7
- fold induction at 0.3 µM [2, 13]: 1.3
- fold induction at 1 µM [2, 13]: 1.1
- fold induction at 3 µM [2, 13]: 1
- fold induction at 0.1 µM [2, 14]: 2.2
- fold induction at 0.3 µM [2, 14]: 0.7
- fold induction at 1 µM [2, 14]: 1.3
- fold induction at 3 µM [2, 14]: 0.7
- Beating Rate MEC ([3]; human, 72 h): 0.048 µM
- RTCA, MEC (BR) ([3]; human, 72 h): 0.048 µM
- Spike Amplitude (SA) MEC ([3]; human, 72 h): 0.16 µM

Structure (SMILES): CC(C)C[C@H](NC(=O)[C@H](Cc1ccccc1)NC(=O)c1cnccn1)B(O)O [Bortezomib]
- Cmax total ([1]; Supplementary Table 1): 0.14 to 2.8 µM
- Cmax total ([1]; Table 1): 0.14 to 2.80 µM
- miRNAs hiPSC-CM pellet, MEC overall [2]: 0.01 µM
- miRNAs upregulated at the MEC overall (hiPSC-CM pellet) [2]: miR-126-3p, miR-182-5p, miR-185-3p, miR-187-3p, miR-7-5p
- RTCA, MEC (CI) ([3]; hiPSC-CM, change ≥20%, Table 2): 0.03 µM
- Beating Rate MEC ([3]; human, 72 h): 0.1 µM
- Beating rate (BR) MEC ([3]; human, 72 h): 0.1 µM
- Contractility Amplitude MEC ([3]; human, 72 h): 0.1 µM
- Field Potential Duration MEC ([3]; human, 72 h): 0.1 µM
- Spike Amplitude (SA) MEC ([3]; human, 72 h): 0.1 µM

Structure (SMILES): CCN[C@@H](C)Cc1cccc(C(F)(F)F)c1 [Dexfenfluramine]
- fold induction at 0.01 µM [2, 4]: 0.8
- fold induction at 0.03 µM [2, 4]: 0.8
- fold induction at 0.1 µM [2, 4]: 0.7
- fold induction at 0.3 µM [2, 4]: 1
- fold induction at 0.01 µM [2, 5]: 1.8
- fold induction at 0.03 µM [2, 5]: 0.8
- fold induction at 0.3 µM [2, 5]: 0.7
- fold induction at 0.01 µM [2, 15]: 1.8
- fold induction at 0.03 µM [2, 15]: 0.8
- fold induction at 0.3 µM [2, 15]: 0.7
- fold induction at 0.01 µM [2, 9]: 1.3
- fold induction at 0.03 µM [2, 9]: 2.3
- fold induction at 0.1 µM [2, 9]: 0.6
- fold induction at 0.3 µM [2, 9]: 0.5
- fold induction at 0.01 µM [2, 10]: 4
- fold induction at 0.03 µM [2, 10]: 0.7
- fold induction at 0.1 µM [2, 10]: 0.5
- fold induction at 0.3 µM [2, 10]: 0.1
- fold induction at 0.01 µM [2, 6]: 0.5
- fold induction at 0.03 µM [2, 6]: 0.7
- fold induction at 0.1 µM [2, 6]: 0.4
- fold induction at 0.3 µM [2, 6]: 0.7
- fold induction at 0.01 µM [2, 11]: 0.01
- fold induction at 0.03 µM [2, 11]: 0.004
- fold induction at 0.1 µM [2, 11]: 0.003
- fold induction at 0.3 µM [2, 11]: 0.01
- fold induction at 0.01 µM [2, 12]: 2.1
- fold induction at 0.03 µM [2, 12]: 1.2
- fold induction at 0.1 µM [2, 12]: 1
- fold induction at 0.3 µM [2, 12]: 0.7
- fold induction at 0.01 µM [2, 7]: 0.6
- fold induction at 0.03 µM [2, 7]: 0.7
- fold induction at 0.1 µM [2, 7]: 0.7
- fold induction at 0.3 µM [2, 7]: 0.6
- fold induction at 0.01 µM [2, 13]: 1.1
- fold induction at 0.03 µM [2, 13]: 1
- fold induction at 0.1 µM [2, 13]: 0.8
- fold induction at 0.3 µM [2, 13]: 0.9
- fold induction at 0.03 µM [2, 14]: 2.6
- fold induction at 0.3 µM [2, 14]: 8.9
- fold induction at 0.01 µM [2, 16]: 1.2
- fold induction at 0.03 µM [2, 16]: 0.9
- fold induction at 0.1 µM [2, 16]: 0.8
- fold induction at 0.3 µM [2, 16]: 0.8
- miRNAs upregulated at the MEC overall (hiPSC-CM pellet) ([2]; fold change ≥2, 72 h): miR-133b, miR-185-3p
- miRNAs hiPSC-CM pellet, MEC overall ([2]; lowest concentration tested which produced miRNA upregulation (fold change ≥2), 72 h): 0.01 µM
- Spike Amplitude (SA) MEC ([3]; hiPSC-CM, 72-hour treatment, at least 40% change): 0.01 µM
- Beating rate (BR) MEC [3, 8]: ND (ND – not detected, magnitude of change was lower than 20%)
- Cell index (CI) MEC [3, 8]: ND (ND – not detected, magnitude of change was lower than 20%)
- RTCA, MEC (BR) ([3]; hiPSC-CM, change ≥20%, Table 2): ND (ND – not detected, magnitude of change was lower than 20% for CI/BR)
- RTCA, MEC (CI) ([3]; hiPSC-CM, change ≥20%, Table 2): ND (ND – not detected, magnitude of change was lower than 20% for CI/BR)
